Measurements: patent US20040058948A1, “Mappicine analogs, methods of inhibiting retroviral reverse transcriptase and methods of treating retroviruses” (priority 2002, published 2004)
Several values for one entry are separate records, joined by “and”; a condition that tells them apart may be missing. Equal values may be shown once. Read-outs that look alike come from different tables or passages of the source.

Experiments:
HIV-1 replication [1] = conditions: published compounds, in words; cited from earlier work
cells [2] = conditions: published compounds, in words; cited from earlier work
HIV-1 replication [3] = assay: Cell culture viral growth assay (HIV-1 replication); format: cell-based
cells [4] = conditions: published compound, in words; cited from earlier work
[5] = target: T1, RNase H activity of HIV reverse transcriptase (Human immunodeficiency virus type 1 group M subtype B, UniProt P04585); conditions: read-out: IC50 RNase H inhibition; literature value (Borkow et al. 1997); cited from earlier work
[6] = target: T1, RNase H activity of HIV reverse transcriptase; assay: Fluorescence (FRET)-based RNase H activity assay of HIV reverse transcriptase; format: biochemical, HIV-1; parameters: final concentration of 2.5 nM of the p51/p66 RT heterodimer in the assay; made in house; conditions: for IC50: read-out: IC50 (μM) against HIV RNase H in vitro; for remaining activity at 10 µM / Residual activity (%) RNase H: 10 μM inhibitor concentration, activity with analog / without analog x 100; for remaining activity at 10 µM: read-out: Residual activity (%) RNase H
Outline: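 p51/p66 HIV-1 RT (usually 2.5 nM) cleaving a 3′-fluorescein RNA/5′-DABCYL DNA hybrid (2.5 μM stock) in 50 mM Tris pH 8.0, 60 mM KCl, 2.5 mM MgCl2, 37 °C; fluorescence rise (ex 490/em 528 nm) read over 3–60 min. Mappicine analogs at 10 μM; % residual activity or % inhibition versus compound-free enzyme.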

[7] = target: T2, RNA-dependent DNA polymerase activity of HIV reverse transcriptase (Human immunodeficiency virus type 1 group M subtype B, UniProt P04585); assay: RNA-dependent DNA polymerase activity assay of HIV reverse transcriptase; format: biochemical, HIV-1; conditions: 10 μM inhibitor concentration, activity with analog / without analog x 100; for remaining activity at 10 µM: read-out: Residual activity (%) Polymerase
T2 construct: made in house
Outline: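 HIV reverse transcriptase RNA-dependent DNA polymerase activity measured with and without mappicine analogs at 10 μM final. Values are % residual activity: activity with compound divided by activity without, ×100.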

[8] = Human immunodeficiency virus 1, read-out: EC50 (μM) against HIV-1 replication

| Compound | Residual activity (%) Polymerase [7] | Residual activity (%) RNase H [6] | also measured |
| --- | --- | --- | --- |
| O=C(O)C(=NNc1ccc(Cl)cc1)C(=O)O [CPHM, 2-[(4-chlorophenyl)-hydrazono]-malonic acid] |  |  | antiviral activity against HIV-1 replication in cultured cells (HIV-1 replication [1]): cannot inhibit HIV-1 replication in cultured cells; ability to penetrate cells (cells [2]): Neither CPHM nor BTOBA are able to penetrate cells |
| CC(C)(C)c1ccc(C(=O)NN=Cc2c(O)ccc3ccccc23)cc1 [BBNH, N-4-(t-butylbenzoyl)-2-hydroxy-1-napthaldehyde hydrazone] |  |  | EC50 (HIV-1 replication [3]; Human immunodeficiency virus 1, cell culture viral growth assay, read-out: EC50 (μM) against HIV-1 replication): 1.5 µM; antiviral activity against HIV-1 replication in cultured cells (HIV-1 replication [1]): demonstrated antiviral activity against HIV-1 replication in cultured cells; toxicity to cells (cells [4]): highly toxic to cells at concentrations only slightly above those that inhibit virus replication; IC50 [5]: ~2 µM; IC50 [6]: 1.8 µM |
| CCc1c2c(nc3ccc(N)cc13)-c1cc(C(O)CC)c(C)c(=O)n1C2 (stereo not shown) [AG 6M, 2-Amino-12-ethyl-7-(1-hydroxypropyl)-8-methyl-11H-indolizino[1,2-b]quinolin-9-one] |  |  | remaining activity at 10 µM [7]: 76%; EC50 (HIV-1 replication [3]; [8]): ~5 µM; remaining activity at 10 µM [6]: 57%; IC50 [6]: < 10 µM and 10 µM |
| O=C(O)C(=O)CC(=O)c1ccc(NC(=O)c2ccccc2)s1 [BTOBA, 4-[5-(benzoylamino)thien-2-yl]-2,4-dioxobutanoic acid] |  |  | antiviral activity against HIV-1 replication in cultured cells (HIV-1 replication [1]): cannot inhibit HIV-1 replication in cultured cells; ability to penetrate cells (cells [2]): Neither CPHM nor BTOBA are able to penetrate cells |
| Cc1ccc2nc3c(c([Si](C)(C)C)c2c1)Cn1c-3cc(C(=O)CCC2CCCCC2)c(C)c1=O [5Cδκ] | 59% | 99% |  |
| CCCCCCc1c2c(nc3ccc(F)cc13)-c1cc(C(O)CCC3CCCCC3)c(C)c(=O)n1C2 (stereo not shown) [8Bδ] | 90% | 112% |  |
| Cc1ccc2nc3c(c(-c4ccccc4)c2c1)Cn1c-3cc(C(=O)CCC2CCCCC2)c(C)c1=O [3Cδκ] | 65% | 93% |  |
| Cc1c(C(=O)C(C)(C)C)cc2n(c1=O)Cc1c-2nc2ccc(F)cc2c1[Si](C)(C)C(C)(C)C [4Bβκ] | 82% | 79% |  |
| CCC(O)c1cc2n(c(=O)c1C)Cc1c-2nc2ccc(NC(=O)OC(C)(C)C)cc2c1[Si](C)(C)C (stereo not shown) [AG 2M, 2-tert-Butyloxycarbonylamino-7-(1-hydroxypropyl)-8-methyl-12-trimethylsilanyl-11H-indolizino[1,2-b]quinolin-9-one] |  |  | remaining activity at 10 µM [7]: 80%; EC50 (HIV-1 replication [3]; [8]): ~5 µM; remaining activity at 10 µM [6]: 47%; IC50 [6]: < 10 µM and 8 µM |
| CCC(O)c1cc2n(c(=O)c1C)Cc1c-2nc2ccc(F)cc2c1-c1ccccc1 (racemic) [3Bα] | 54% | 83% |  |
| CCC(O)c1cc2n(c(=O)c1C)Cc1c-2nc2ccccc2c1[Si](C)(C)C(C)(C)C (racemic) [4Aα] | 67% | 104% |  |
| Cc1c(C(=O)CCC2CCCCC2)cc2n(c1=O)Cc1c-2nc2ccc(F)cc2c1[Si](C)(C)C(C)(C)C [4Bδκ] | 56% | 96% |  |
| CCC(=O)c1cc2n(c(=O)c1C)Cc1c-2nc2ccc(C)cc2c1[Si](C)(C)C [5Cακ] | 93% | 109% |  |
| COc1ccc2nc3c(c(-c4ccccc4)c2c1)Cn1c-3cc(C(O)CCC2CCCCC2)c(C)c1=O (racemic) [3Dδ] | 60% | 67% |  |
| CCCCCCc1c2c(nc3ccc(OC)cc13)-c1cc(C(O)C(C)(C)C)c(C)c(=O)n1C2 (racemic) [8Dβ] | 68% | 67% |  |
| CCCCCCc1c2c(nc3ccccc13)-c1cc(C(O)C(C)(C)C)c(C)c(=O)n1C2 (stereo not shown) [8Aβ] | 103% | 91% |  |
| CCC(O)c1cc2n(c(=O)c1C)Cc1c-2nc2ccc(OC)cc2c1[Si](C)(C)C (racemic) [5Dα] | 88% | 78% |  |
| COc1ccc2nc3c(c([Si](C)(C)C)c2c1)Cn1c-3cc(C(O)CCC2CCCCC2)c(C)c1=O (stereo not shown) [5Dδ] | 57% | 96% |  |
